{
  "source": "paper PMC6680430",
  "about": "“Quantitative Prediction of Human Pharmacokinetics and Pharmacodynamics of CKD519, a Potent Inhibitor of Cholesteryl Ester Transfer Protein (CETP)” (Pharmaceutics, 2019)",
  "key": {"[1]": {"test": "absolute bioavailability from first-in-human study (observed oral AUC vs predicted intravenous AUC)", "format": "in vivo", "settings": "AUC ratio observed oral / predicted intravenous", "text": "The absolute bioavailability was estimated for each dose (Table 7) by comparing the AUC of the observed oral PK profile in the first-in-human study and that of the predicted human i.v. PK profile from animal PK data. […] Even though the trends were similar, absolute bioavailability estimated by the observed PK profile was less than one-fifth of the predicted bioavailability using the animal PK data. […] Delayed absorption was also found, and the difference in formulation between animals and humans was considered to have caused the delay by affecting the absorption rate. Simulated AUC, Cmax, and Tmax were within 2-folds, the range that is generally accepted for animal-to-human predictions."}, "CETP": {"tested_on": "CETP", "test": "human PK/PD modeling and simulation of CETP inhibition", "protocol": "The efficacious dose was defined as the dose accomplishing the threshold in ≥50% of the population, which was determined using the median. Thus, the variability of the parameters was not incorporated in the simulation."}, "[2]": {"test": "human PK parameter prediction by allometric scaling", "settings": "60 kg human", "text": "(§1) The volume parameters (Vc, Vp) estimated from the PK models for three different species were correlated through simple allometric scaling (=Body weight-dependent allometry) in the PK model fitted to the overall data from all species. This method is based on the power–law function, which can be represented as follows:Y = a × BW^b,(2) where Y represents the PK parameter of interest from each animal; BW represents the average body weight of each species from the relevant in vivo studies; and a and b are the allometric coefficient and exponent of the equation, respectively.\n(§2) For the allometric scaling of the clearance parameters (CL, Q) in the same model, physiological parameters such as brain weight (BrW) or maximum lifespan potential (MLP) of each species were incorporated if necessary. To address the uncertainty, two allometric relationships were selected as the final models, and two sets of human PK parameters were predicted: one from the allometry of best fit and the other from the most conventional simple allometry. The appropriateness of the extrapolated human PK parameter values was assessed by comparing them with those of the comparator. Since allometric scaling is not generally recommended for the absorption parameter, human absorption parameters were determined by the final estimates from the overall PK model instead of the allometric method.\nAs mentioned in Section 2.4, predicted human (with the body weight of 60 kg) PK parameter values were obtained using the simple and BrW-corrected (the best fit) allometric relationships and the final estimates for allometric coefficient and exponent in overall PK models."}, "[3]": {"test": "overall (interspecies) PK model with allometric relationships", "format": "in vivo, hamster, rat, monkey", "settings": "for θ3 Coefficient for Vc: Vc = θ3 × WT^θ4 (θ4 fixed 1); for θ7 Coefficient for Vp: Vp = θ7 × WT^θ8 (θ8 fixed 1)", "text": "as §1, §2\nThe final allometric relationship used in the overall PK model is as follows:Parameter value in each species = a × BW^b (for volume parameters, Vc and Vp),(9) Parameter value in each species = a × BW^b/BrW (for clearance parameters, CL and Q),(10) where BrW and BW represent the average brain weight and body weight of each species, respectively, and a and b are the coefficient and exponent of the allometric relationship, respectively.\nThe GOF plots of the final PK model are shown in Figure 3 The final parameter estimates from the overall PK model, and the precision of parameter estimates assessed by the bootstrap method are shown in Table 5."}, "[4]": {"test": "preclinical in vitro and in vivo efficacy studies (off-target effects)"}, "[5]": {"settings": "brain weight-corrected allometry"}, "[6]": {"settings": "brain weight-corrected, estimate"}},
  "note": "pIC50: −log10 of the molar value.",
  "data": [
    {"smiles": "COc1cc(F)c(C(C)C)cc1C1=C(CN2C(=O)O[C@H](c3cc(C(F)(F)F)cc(C(F)(F)F)c3)[C@@H]2C)CC(C)(C)CC1", "note": "[CKD519]", "values": [
      {"measurement": "Absolute Bioavailability", "setting": "[1]; oral dose 25 mg", "value": 0.0362},
      {"measurement": "Absolute Bioavailability", "setting": "[1]; oral dose 50 mg", "value": 0.0321},
      {"measurement": "Absolute Bioavailability", "setting": "[1]; oral dose 100 mg", "value": 0.0191},
      {"measurement": "Absolute Bioavailability", "setting": "[1]; oral dose 200 mg", "value": 0.0140},
      {"measurement": "Absolute Bioavailability", "setting": "[1]; oral dose 400 mg", "value": 0.00814},
      {"measurement": "pIC50", "setting": "CETP; comparator in vivo IC50 22 nM scaled by in vitro potency ratio, read-out: assumed in vivo IC50", "value": 7.43},
      {"measurement": "IC50 reflected in the PD model", "setting": "CETP; corresponds to 22 nM (reported PD parameter of comparator scenario)", "value": 0.01322, "unit": "µg/mL"},
      {"measurement": "IC50 reflected in the PD model", "setting": "CETP; corresponds to 37 nM (in vitro potency ratio scenario)", "value": 0.02224, "unit": "µg/mL"},
      {"measurement": "CL, predicted human", "setting": "[2]; [5]", "value": 0.777, "unit": "L/h"},
      {"measurement": "F 50, predicted human", "setting": "[2]; [5]", "value": 10.6},
      {"measurement": "F max, predicted human", "setting": "[2]; [5]", "value": 0.192},
      {"measurement": "Q, predicted human", "setting": "[2]; [5]", "value": 2.39, "unit": "L/h"},
      {"measurement": "Vc, predicted human", "setting": "[2]; [5]", "value": 4.41, "unit": "L"},
      {"measurement": "Vp, predicted human", "setting": "[2]; [5]", "value": 48.8, "unit": "L"},
      {"measurement": "α, predicted human", "setting": "[2]; [5]", "value": 4.51},
      {"measurement": "β, predicted human", "setting": "[2]; [5]", "value": 3.11},
      {"measurement": "CL, predicted human", "setting": "[2]; simple allometry", "value": 0.264, "unit": "L/h"},
      {"measurement": "F 50, predicted human", "setting": "[2]; simple allometry", "value": 10.6},
      {"measurement": "F max, predicted human", "setting": "[2]; simple allometry", "value": 0.192},
      {"measurement": "Q, predicted human", "setting": "[2]; simple allometry", "value": 1.17, "unit": "L/h"},
      {"measurement": "Vc, predicted human", "setting": "[2]; simple allometry", "value": 3.29, "unit": "L"},
      {"measurement": "Vp, predicted human", "setting": "[2]; simple allometry", "value": 49.7, "unit": "L"},
      {"measurement": "α, predicted human", "setting": "[2]; simple allometry", "value": 4.51},
      {"measurement": "β, predicted human", "setting": "[2]; simple allometry", "value": 3.11},
      {"measurement": "θ5 Coefficient for Q", "setting": "[3]; brain weight-corrected, Q = θ5 × WT^θ6/BrW, estimate", "value": 0.846},
      {"measurement": "θ3 Coefficient for Vc", "setting": "[3]; [6]", "value": 0.0735},
      {"measurement": "θ7 Coefficient for Vp", "setting": "[3]; [6]", "value": 0.813},
      {"measurement": "α Scale parameter of WB", "setting": "[3]; [6]", "value": 4.51},
      {"measurement": "β Shape parameter of WB", "setting": "[3]; [6]", "value": 3.11},
      {"measurement": "θ6 Exponent of Q", "setting": "[3]; [6]", "value": 2.04},
      {"measurement": "ωCL Interindividual variability of CL", "setting": "[3]; [6]", "value": 25.9, "unit": "%"},
      {"measurement": "ωQ Interindividual variability of Q", "setting": "[3]; [6]", "value": 60.8, "unit": "%"},
      {"measurement": "ωα Interindividual variability of α", "setting": "[3]; [6]", "value": 27.0, "unit": "%"},
      {"measurement": "ωβ Interindividual variability of β", "setting": "[3]; [6]", "value": 24.0, "unit": "%"},
      {"measurement": "θ5 Coefficient for Q", "setting": "[3]; simple allometry, Q = θ5 × WT^θ6, estimate", "value": 0.0549},
      {"measurement": "θ3 Coefficient for Vc", "setting": "[3]; simple allometry, estimate", "value": 0.0755},
      {"measurement": "θ7 Coefficient for Vp", "setting": "[3]; simple allometry, estimate", "value": 0.829},
      {"measurement": "α Scale parameter of WB", "setting": "[3]; simple allometry, estimate", "value": 4.50},
      {"measurement": "β Shape parameter of WB", "setting": "[3]; simple allometry, estimate", "value": 3.01},
      {"measurement": "θ6 Exponent of Q", "setting": "[3]; simple allometry, estimate", "value": 0.670},
      {"measurement": "ωCL Interindividual variability of CL", "setting": "[3]; simple allometry, estimate", "value": 42.8, "unit": "%"},
      {"measurement": "ωQ Interindividual variability of Q", "setting": "[3]; simple allometry, estimate", "value": 23.9, "unit": "%"},
      {"measurement": "ωα Interindividual variability of α", "setting": "[3]; simple allometry, estimate", "value": 27.1, "unit": "%"},
      {"measurement": "ωβ Interindividual variability of β", "setting": "[3]; simple allometry, estimate", "value": 65.7, "unit": "%"},
      {"measurement": "off-target effects", "setting": "[4]", "value": "no off-target effects"}
    ]}
  ]
}
